# Measured values published in PMC10761119, “Phosphorylation-state dependent intraneuronal sorting of Aβ differentially impairs autophagy and the endo-lysosomal system” (Autophagy, 2023).
# Columns and labels:
# [1] = tested on: primary cortical neurons; assay: SDS-PAGE and immunoblotting of marker proteins in membrane and cytosolic fractions; format: cell-based, mouse; conditions: Aβ 500 nM, 4 h, normalized to Actin/GAPDH, fold change wrt control cells, mean ± S.E.M., n = 6, N = 3; for CTSD mature* level / CTSD pro* level / EEA1* level / RAB5* level / RAB7* level / RAB11* level / SQSTM1/p62* level / UBQ* level: cytosolic fraction; for ATG3 level / ATG5 level / ATG12–ATG5 level / ATG14 level / LAMP2 level / LC3-I level / LC3-II level / ULK1/Atg1 level: membrane fraction
# Experimental: [Worded in the source for another cell line; used here, by the source, with some conditions changed.] SH-SY5Y cells seeded on D1, were treated with Aβ variants (1 μM) on D3 in DMEM/F-12 media without serum and antibiotics. Control treatment included treatment with equal volume of 10 mM NaOH solution used for preparing the Aβ stock solutions, in respective cell culture medium. SH-SY5Y cells, after 16 h of transient expression of the reporter constructs, were treated with different Aβ variants, autophagy modulator substrates and respective controls in DMEM/F-12, FCS^− PS^− media for the mentioned time points. After treatment, cells were washed twice with PBS and with 0.025% trypsin-EDTA in PBS to get rid of cell bound Aβ, followed by subsequent washings with PBS again. Cells were either collected by scraping using a cell-scraper or fixed with 4% PFA-PBS for 15 min at RT, for further immunocytochemistry experiments. Collected treatment media was centrifuged at 1000 g for 5 min, pellet discarded and supernatant frozen at −20°C until further usage.
# Cells were collected by scraping and mechanically homogenized in hypotonic D buffer (10 mM Tris-HCl, pH 7.4, 10 mM NaCl, 0.1 mM EGTA, 25 mM glycerol 2-phosphate, 1 mM DTT) containing protease and phosphatase inhibitors by repeated suspension through a 23 G × 1” needle. Post-nuclear supernatant (PNS) was collected by centrifugation of the mechanically homogenized cellular material at 2,000 g for 5 min. The pellet was the nuclear material. Nuclear pellet was then resuspended in Buffer C (5 mM HEPES, 1.5 mM MgCl2, 0.2 mM EDTA, 0.5 mM DTT, 0.05% NP40 [Sigma Aldrich, 18876], 30% glycerol, pH 7.9) containing protease and phosphatase inhibitors, ultrasonicated at minimum voltage, three currents in four cycles, followed by repetitive cooling of samples on ice. The nuclear fraction was the supernatant collected after centrifugation at 16,100 g for 15 min. The PNS collected from the first step was centrifuged at 16,100 g for 60 min, and supernatant was used as the crude cytosolic fraction. The pellet contained the membrane materials, which were re-homogenized in hypotonic D buffer and again centrifuged at 16,100 g for 60 min. The supernatant was discarded, pellet was resuspended in STEN-lysis buffer (20 mM Tris-HCl, pH 7.5, 150 mM NaCl, 1 mM EDTA, 1 mM EGTA, 1% Triton X-100, 2.5 mM sodium pyrophosphate [Sigma Aldrich, P1835], 1 mM β-glycerophosphate [Sigma Aldrich, G9422]) containing protease and phosphatase inhibitors, and the membrane fraction was the supernatant collected after centrifugation at 16,100 g for 15 min. The crude cytosolic fraction was then further fractionated at 100,000 g for 70 min at 4°C under vacuum. The resultant supernatant was the soluble cytosolic fraction. The pellet was resuspended in STEN lysis buffer and centrifuged at 16,100 g for 15 min. The resultant supernanant represented the insoluble cytosolic fraction.
# For different cellular fractions prepared as described earlier, the protein content was estimated using the standard Pierce™ BCA protein assay kit (ThermoFisher Scientific, 23225). For direct comparison between the samples, equal amount of protein was loaded. Samples were dissolved in Laemmli buffer and were boiled at 95°C for 5 min. They were loaded on a precast 4–12% NuPage® Bis-Tris gels (Life technologies, NP033–5/6, WG140–2/3). Gels and prestained protein molecular weight markers were purchased from Life technologies. The separated proteins were electro-transferred onto a 0.2-μm nitrocellulose (NT) membrane (Amersham, 1060001) for 1 h 45 min. After blotting, the NT membranes were boiled in PBS for 10 min. Ponceau staining was done to monitor protein loading of samples. The blots were then incubated in 5% skim milk in TBS-T (TBS [50 mM Tris-HCl, pH 7.5, 150 mM NaCl] containing 0.1% Tween 20 [Sigma Aldrich, P1379]) for 1 h at RT. Blots were incubated overnight at 4°C in the primary antibody solution (respective dilutions in TBS-T, Table 1). Blots were washed and incubated with appropriate secondary antibodies conjugated either with HRP or fluorescent dyes for 1 h. […]
# [2] = tested on: CTSD and CTSE in SH-SY5Y cells; assay: CTSD and CTSE activity assay with fluorogenic substrate; format: cell-based, human; conditions: Aβ 1 µM, 24 h, per µg total cellular protein, compared to control cells
# Experimental: Cells were seeded in a 96-well plate (12000 cells/well, D1) and treated with different Aβ variants (primary cortical neurons, DIV14–500 nM, 4 h; SH-SY5Y cells, D3–1 μM, 24 h) in neurobasal, FCS-/PS- media. After the treatment, the supernatant was discarded, and cells were washed with PBS once. Cells were lysed by solubilizing the plasma membrane and intracellular membranes by adding 50 μL of 200 μg/mL digitonin in acetate buffer to the wells followed by incubation on ice for 15 min. Additionally, 50 μL of the Omnicathepsin D & E fluorogenic substrate (Enzo Life sciences, BML-P145) in sodium acetate buffer was added to the lysates in the wells for a final concentration of 30 μM of substrate and 10 mM DTT. Plate was incubated for 25 min at RT and the reaction was stopped by addition of 10 µl of ethanol. The relative amount of substrate cleavage in each well was computed using multiplate reader at λEx 380 nm and λEm 460 nm. Values were normalized and represented as fold-change with respect to control cells. Graphs in Figure 7G and S7F represent data from 3 independent experiments (n = 9).
substance,measurement,setting,value
"non-phosphorylated amyloid-β [npAβ, reference compound]",CTSD mature* level,[1],1.08 ± 0.07 fold change
same,CTSD pro* level,[1],0.99 ± 0.06 fold change
same,EEA1* level,[1],1.22 ± 0.15 fold change
same,RAB5* level,[1],1.08 ± 0.07 fold change
same,RAB7* level,[1],1.1 ± 0.08 fold change
same,RAB11* level,[1],1.47 ± 0.22 fold change
same,SQSTM1/p62* level,[1],1.19 ± 0.02 fold change
same,UBQ* level,[1],1.36 ± 0.19 fold change
same,ATG3 level,[1],1.23 ± 0.21 fold change
same,ATG5 level,[1],1.08 ± 0.11 fold change
same,ATG12–ATG5 level,[1],1.04 ± 0.09 fold change
same,ATG14 level,[1],1.27 ± 0.08 fold change
same,LAMP2 level,[1],1.16 ± 0.08 fold change
same,LC3-I level,[1],1.37 ± 0.06 fold change
same,LC3-II level,[1],1.48 ± 0.06 fold change
same,ULK1/Atg1 level,[1],1.37 ± 0.35 fold change
amyloid-β phosphorylated at serine residue 26 [p-Ser26Aβ],CTSD mature* level,[1],1.46 ± 0.11 fold change
same,CTSD pro* level,[1],1.19 ± 0.05 fold change
same,EEA1* level,[1],1.28 ± 0.12 fold change
same,RAB5* level,[1],1.47 ± 0.11 fold change
same,RAB7* level,[1],1.25 ± 0.12 fold change
same,RAB11* level,[1],1.89 ± 0.06 fold change
same,SQSTM1/p62* level,[1],1.41 ± 0.08 fold change
same,UBQ* level,[1],2.11 ± 0.4 fold change
same,ATG3 level,[1],1.38 ± 0.32 fold change
same,ATG5 level,[1],1.31 ± 0.11 fold change
same,ATG12–ATG5 level,[1],1.43 ± 0.23 fold change
same,ATG14 level,[1],1.58 ± 0.17 fold change
same,LAMP2 level,[1],1.23 ± 0.07 fold change
same,LC3-I level,[1],1.45 ± 0.12 fold change
same,LC3-II level,[1],1.42 ± 0.2 fold change
same,ULK1/Atg1 level,[1],1.74 ± 0.36 fold change
same,Activity of lysosomal CTSD and CTSE,[2],increased activity
amyloid-β phosphorylated at serine residue 8 [p-Ser8Aβ],CTSD mature* level,[1],0.94 ± 0.09 fold change
same,CTSD pro* level,[1],0.99 ± 0.04 fold change
same,EEA1* level,[1],1.65 ± 0.21 fold change
same,RAB5* level,[1],1.26 ± 0.09 fold change
same,RAB7* level,[1],0.95 ± 0.17 fold change
same,RAB11* level,[1],1.75 ± 0.29 fold change
same,SQSTM1/p62* level,[1],1.49 ± 0.06 fold change
same,UBQ* level,[1],1.62 ± 0.14 fold change
same,ATG3 level,[1],1.23 ± 0.38 fold change
same,ATG5 level,[1],1.18 ± 0.1 fold change
same,ATG12–ATG5 level,[1],1.18 ± 0.2 fold change
same,ATG14 level,[1],1.17 ± 0.05 fold change
same,LAMP2 level,[1],0.97 ± 0.06 fold change
same,LC3-I level,[1],1.43 ± 0.15 fold change
same,LC3-II level,[1],1.95 ± 0.14 fold change
same,ULK1/Atg1 level,[1],0.88 ± 0.22 fold change
same,Activity of lysosomal CTSD and CTSE,[2],no significant effect
